Measurements reported in patent publication US11642392B2, “Therapeutic agent of uremia containing alarin as the main ingredient” (JU TIDE CO., LTD., priority 2017, dated 2023).

How the values were obtained:
[1] = system: Cisplatin-induced uremia in the Sprague-Dawley rat model; conditions: single dose of 10 μg/1 mL/head and 20 μg/1 mL/head IV, vs control group of excipient
Description: (§1) The intravenous administration was done by fixing an animal into a correction frame, and slowly injecting at a rate of within 1 mL/min through the micro vein using a syringe equipped with 26 gauges needle. The intraperitoneal administration was performed by fixing the animal by a transdermal skin fixation method and intraperitoneally injecting using a syringe equipped with 26 gauges needle.
Serum obtained from the centrifugation was tested for blood urea nitrogen (BUN) and […] (CRE) using a blood biochemical analyzer (7180 Hitachi, Japan).

[2] = system: Cisplatin-induced uremia in the Sprague-Dawley rat model
Description: as §1
Finally, animals were inhaled with ether on an necropsy day to anesthetize and euthanize, and kidneys were extracted and fixed in a 10% neutral buffered formalin solution, and the fixed tissues were cut, dehydrated, paraffin embedded and hematoxylin & eosin stained to make a specimens for histopathological examination after these histological treatment. And then, the obtained specimen is subjected to speculum using an optical microscope (Olympus BX53, Japan).

Q: With “alarin (human) trifluoroacetate salt [test substance]” as the substance, how does the blood biochemical level [1] read?
A: tendency to improve

Q: What about the “histopathological examination results, lesion level” value ([2]; 10 and 20 μg/1 mL/head IV single dose, across doses) of the same substance?
A: dose-related change trend and significant changes in lesion level

Q: And the “level of lesion (histopathological examination of kidney)” value ([2]; high dose group (20 μg/1 mL/head IV, single dose), necropsy Day 7, H&E, vs control group)?
A: significantly lower
